Test results from US20150299188A1, “HETEROCYCLIC COMPOUND” (priority 2012, published 2015).

Tested on: FLAP (5-lipoxygenase activating protein)
Test: In vitro binding test: displacement of [3H]-7-chloro-3-(5-((3-fluoropyridin-2-yl)methoxy)-2-methylphenyl)-3,4-dihydroquinazolin-2(1H)-one from Sf9 microsome fractions
Set-up: species or system human and mouse
Settings: Sf9 microsome fractions expressing FLAP; 100% = radioligand binding with 10 μM sodium 3-(3-(tert-butylsulfanyl)-1-(4-chlorobenzyl)-5-isopropyl-1H-indol-2-yl)-2,2-dimethylpropanoate, 0% = DMSO; test compound concentration not given
Summary of the method: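 Sf9 microsomes expressing human or mouse FLAP (2 μg/mL) preincubated with compound 10 min at room temperature, then 120 nM tritiated quinazolinone ligand added for 60 min; buffer 100 mM Tris-HCl pH 7.5 with NaCl, EDTA, DTT, glycerol, Tween20. Bound ligand filtered and counted by scintillation; 10 μM indole propanoate defines 100% inhibition, DMSO 0%.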

SMILES	inhibitory rate (%)
O=C1Nc2cc(-c3ncon3)nc(C3CC3)c2CN1c1cc2c(cc1Cl)CCC(c1ncccc1F)O2 (stereo not drawn) [Example 136, 3-(6-chloro-2-(3-fluoropyridin-2-yl)-3,4-dihydro-2H-chromen-7-yl)-5-cyclopropyl-7-(1,2,4-oxadiazol-3-yl)-3,4-dihydropyrido[4,3-d]pyrimidin-2(1H)-one]	111%
Cn1c(=O)n(-c2cccc(OCc3c(F)cccc3F)c2)c(=O)c2ccncc21 [Example 331, 3-(3-((2,6-difluorobenzyl)oxy)phenyl)-1-methylpyrido[3,4-d]pyrimidine-2,4(1H,3H)-dione]	51%
O=C1Nc2c(N3CCOCC3)ncc(Cl)c2CN1c1cc2c(cc1Cl)CCC(c1ncccc1F)O2 (stereo not drawn) [Example 81, 5-chloro-3-(6-chloro-2-(3-fluoropyridin-2-yl)-3,4-dihydro-2H-chromen-7-yl)-8-(morpholin-4-yl)-3,4-dihydropyrido[3,4-d]pyrimidin-2(1H)-one]	102%
Cc1cc2c(cc1N1Cc3c(cc(-c4ccnn4C)nc3C3CC3)NC1=O)OC(c1ncccc1F)CC2 (stereo not drawn) [Example 93, 5-cyclopropyl-3-(2-(3-fluoropyridin-2-yl)-6-methyl-3,4-dihydro-2H-chromen-7-yl)-7-(1-methyl-1H-pyrazol-5-yl)-3,4-dihydropyrido[4,3-d]pyrimidin-2(1H)-one]	112%
Cc1cc2c(cc1N1Cc3c(ccnc3C(C)(C)O)NC1=O)OC(c1ncccc1F)CC2 (stereo not drawn) [Example 33, 3-(2-(3-fluoropyridin-2-yl)-6-methyl-3,4-dihydro-2H-chromen-7-yl)-5-(2-hydroxypropan-2-yl)-3,4-dihydropyrido[4,3-d]pyrimidin-2(1H)-one]	106%
Cc1cc2c(cc1N1Cc3c(cc(C4CC4)nc3-c3ccnn3C)NC1=O)OC(c1ncccc1F)CC2 (stereo not drawn) [Example 104, 7-cyclopropyl-3-(2-(3-fluoropyridin-2-yl)-6-methyl-3,4-dihydro-2H-chromen-7-yl)-5-(1-methyl-1H-pyrazol-5-yl)-3,4-dihydropyrido[4,3-d]pyrimidin-2(1H)-one]	91%
O=C(c1cc2c(c(C3CC3)n1)CN(c1cc3c(cc1Cl)CCC(c1ncccc1F)O3)C(=O)N2)N1CC2(COC2)C1 (stereo not drawn) [Example 137, 3-(6-chloro-2-(3-fluoropyridin-2-yl)-3,4-dihydro-2H-chromen-7-yl)-5-cyclopropyl-7-(2-oxa-6-azaspiro[3.3]hept-6-ylcarbonyl)-3,4-dihydropyrido[4,3-d]pyrimidin-2(1H)-one]	104%
COC(=O)c1ccc(OCc2ncccc2F)cc1N1Cc2ccccc2NC1=O [Example 219, methyl 4-((3-fluoropyridin-2-yl)methoxy)-2-(2-oxo-1,4-dihydroquinazolin-3(2H)-yl)benzoate]	106%
O=c1[nH]c2cnccc2c(=O)n1-c1cccc(OCc2c(F)cccc2F)c1 [Example 330, 3-(3-((2,6-difluorobenzyl)oxy)phenyl)pyrido[3,4-d]pyrimidine-2,4(1H,3H)-dione]	72%
Cc1ccc(OCc2ncccc2F)cc1N1Cc2cccnc2NC1=O [Example 256, 3-(5-((3-fluoropyridin-2-yl)methoxy)-2-methylphenyl)-3,4-dihydropyrido[2,3-d]pyrimidin-2(1H)-one]	85%
COc1cc2c(c(C3CC3)n1)CN(c1cc3c(cc1Cl)CCC(c1ncccc1F)O3)C(=O)N2 (stereo not drawn) [Example 16, 3-(6-chloro-2-(3-fluoropyridin-2-yl)-3,4-dihydro-2H-chromen-7-yl)-5-cyclopropyl-7-methoxy-3,4-dihydropyrido[4,3-d]pyrimidin-2(1H)-one]	102%
O=C1Nc2c(Cl)cnc(C3CC3)c2CN1c1cc2c(cc1Cl)CCC(c1ncccc1F)O2 (stereo not drawn) [Example 65, 8-chloro-3-(6-chloro-2-(3-fluoropyridin-2-yl)-3,4-dihydro-2H-chromen-7-yl)-5-cyclopropyl-3,4-dihydropyrido[4,3-d]pyrimidin-2(1H)-one]	105%
O=C1COCCN1c1cc2c(c(C3CC3)n1)CN(c1cc3c(cc1Cl)CCC(c1ncccc1F)O3)C(=O)N2 (stereo not drawn) [Example 120, 3-(6-chloro-2-(3-fluoropyridin-2-yl)-3,4-dihydro-2H-chromen-7-yl)-5-cyclopropyl-7-(3-oxomorpholin-4-yl)-3,4-dihydropyrido[4,3-d]pyrimidin-2(1H)-one]	100%
CCOc1ncc(Cl)c2c1NC(=O)N(c1cc3c(cc1C)CCC(c1ncccc1F)O3)C2 (stereo not drawn) [Example 161, 5-chloro-8-ethoxy-3-(2-(3-fluoropyridin-2-yl)-6-methyl-3,4-dihydro-2H-chromen-7-yl)-3,4-dihydropyrido[3,4-d]pyrimidin-2(1H)-one]	90%
Cc1ccc(OCc2c(F)cccc2F)cc1N1Cc2ccc(C(=O)NC(C)(C)C(=O)O)cc2NC1=O [Example 207, N-((3-(5-((2,6-difluorobenzyl)oxy)-2-methylphenyl)-2-oxo-1,2,3,4-tetrahydroquinazolin-7-yl)carbonyl)-2-methylalanine]	87%
Cc1ncc(Cl)c2c1NC(=O)N(c1cc3c(cc1Cl)CC[C@@H](c1ncccc1F)O3)C2 [Example 9, 5-chloro-3-((2S)-6-chloro-2-(3-fluoropyridin-2-yl)-3,4-dihydro-2H-chromen-7-yl)-8-methyl-3,4-dihydropyrido[3,4-d]pyrimidin-2(1H)-one]	104%
O=C(NC1CC1)c1ccc(OCc2ncccc2F)cc1N1Cc2ccccc2NC1=O [Example 221, N-cyclopropyl-4-((3-fluoropyridin-2-yl)methoxy)-2-(2-oxo-1,4-dihydroquinazolin-3(2H)-yl)benzamide]	72%
Cc1ccc(OCc2ncccc2F)cc1N1Cc2ccncc2NC1=O [Example 259, 3-(5-((3-fluoropyridin-2-yl)methoxy)-2-methylphenyl)-3,4-dihydropyrido[3,4-d]pyrimidin-2(1H)-one]	92%
COc1ccc(CN2C(=O)N(c3cc(OCc4ncccc4F)ccc3Br)Cc3ccccc32)cc1 [Example 258, 3-(2-bromo-5-((3-fluoropyridin-2-yl)methoxy)phenyl)-1-(4-methoxybenzyl)-3,4-dihydroquinazolin-2(1H)-one]	116%
Cc1ccc(OCc2ncccc2F)cc1N1Cc2c(Cl)cccc2N(CC(=O)O)C1=O [Example 285, (5-chloro-3-(5-((3-fluoropyridin-2-yl)methoxy)-2-methylphenyl)-2-oxo-3,4-dihydroquinazolin-1(2H)-yl)acetic acid]	102%
Cc1cc2c(cc1-n1c(=O)[nH]c3ccccc3c1=O)OC(c1ncccc1F)CC2 (stereo not drawn) [Example 327, 3-(2-(3-fluoropyridin-2-yl)-6-methyl-3,4-dihydro-2H-chromen-7-yl)quinazoline-2,4(1H,3H)-dione]	107%
CC(C)(C)Cc1ccc(OCc2c(F)cccc2F)cc1N1Cc2ccc(C(C)(C)O)cc2NC1=O [Example 293, 3-(5-((2,6-difluorobenzyl)oxy)-2-(2,2-dimethylpropyl)phenyl)-7-(2-hydroxypropan-2-yl)-3,4-dihydroquinazolin-2(1H)-one]	84%
O=C1Nc2c(N3CCSCC3)ncc(Cl)c2CN1c1cc2c(cc1Cl)CCC(c1ncccc1F)O2 (stereo not drawn) [Example 130, 5-chloro-3-(6-chloro-2-(3-fluoropyridin-2-yl)-3,4-dihydro-2H-chromen-7-yl)-8-(thiomorpholin-4-yl)-3,4-dihydropyrido[3,4-d]pyrimidin-2(1H)-one]	101%
CCc1ccc(OCc2c(F)cccc2F)cc1N1Cc2ccc(CO)cc2NC1=O [Example 179, 3-(5-((2,6-difluorobenzyl)oxy)-2-ethylphenyl)-7-(hydroxymethyl)-3,4-dihydroquinazolin-2(1H)-one]	91%
O=C1Nc2cc(CO)ccc2CN1c1cc(OCc2c(F)cccc2F)ccc1F [Example 234, 3-(5-((2,6-difluorobenzyl)oxy)-2-fluorophenyl)-7-(hydroxymethyl)-3,4-dihydroquinazolin-2(1H)-one]	85%
Cc1cc2c(cc1N1Cc3c(cc(-n4cc(C(N)=O)cn4)nc3C3CC3)NC1=O)OC(c1ncccc1F)CC2 (stereo not drawn) [Example 135, 1-(5-cyclopropyl-3-(2-(3-fluoropyridin-2-yl)-6-methyl-3,4-dihydro-2H-chromen-7-yl)-2-oxo-1,2,3,4-tetrahydropyrido[4,3-d]pyrimidin-7-yl)-1H-pyrazole-4-carboxamide]	104%
CCCCOC(=O)/C=C/c1ccc(OCc2ncccc2F)cc1N1Cc2ccccc2NC1=O [Example 225, butyl (2E)-3-(4-((3-fluoropyridin-2-yl)methoxy)-2-(2-oxo-1,4-dihydroquinazolin-3(2H)-yl)phenyl)acrylate]	100%
Cc1cc2c(cc1N1Cc3c(ccnc3C(F)(F)F)NC1=O)O[C@H](c1ncccc1F)CC2 [Example 6, 3-((2S)-2-(3-fluoropyridin-2-yl)-6-methyl-3,4-dihydro-2H-chromen-7-yl)-5-(trifluoromethyl)-3,4-dihydropyrido[4,3-d]pyrimidin-2(1H)-one]	98%
Cc1ccc(OCc2ncccc2F)cc1N1Cc2ccc(C(=O)N(C)C3CC3)cc2NC1=O [Example 302, N-cyclopropyl-3-(5-((3-fluoropyridin-2-yl)methoxy)-2-methylphenyl)-N-methyl-2-oxo-1,2,3,4-tetrahydroquinazoline-7-carboxamide]	104%
Cc1cc2c(c(C)n1)CN(c1cc3c(cc1Cl)CCC(c1ncccc1F)O3)C(=O)N2 (stereo not drawn) [Example 63, 3-(6-chloro-2-(3-fluoropyridin-2-yl)-3,4-dihydro-2H-chromen-7-yl)-5,7-dimethyl-3,4-dihydropyrido[4,3-d]pyrimidin-2(1H)-one]	106%
